Experimental data from US20040242700A1 (priority 2001, published 2004).
Read-outs that look alike come from different tables or passages of the source.

What was measured:
[1] = test system: mucosal immunoglobulin IgA; type: in vivo, mice
[2] = test system: SP-A; type: in vivo, mice; conditions: administration of ambroxol
[3] = test system: mucosal immunoglobulin IgG; type: in vivo, mice
[4] = test system: inflammatory cytokines such as TNF-α, IL-2, IL-1, IL-4, IL-13 and IFN-γ; conditions: literature reports; cited from earlier work
[5] = test system: IFN-γ; type: in vivo, mice
[6] = test system: MPI; type: in vivo, mice; conditions: administration of ambroxol
[7] = test system: trypsin-type protease; design: species or system mice; conditions: mouse, in vivo, ip
[8] = test system: mucosal immunoglobulin IgA; type: in vivo, mice; remark: listed apart in the source
[9] = test system: IL-6; type: in vivo, mice
[10] = test system: IL-12; type: in vivo, mice
[11] = test system: TNF-α; type: in vivo, mice; conditions: 3rd to 5th day of treatment, not always observed
[12] = test system: mucosal immunoglobulin IgG; type: in vivo, mice; remark: listed apart in the source
[13] = test system: trypsin-type protease; type: in vivo, mice; conditions: 4th day
[14] = test system: MPI; type: in vivo, mice
[15] = test system: SP-A; design: species or system mice; conditions: mouse, in vivo, ip

Structure (SMILES): Nc1c(Br)cc(Br)cc1CN[C@H]1CC[C@H](O)CC1 [ambroxol, 2-amino-3,5-dibromo-N-[trans-4-hydroxycyclohexyl] benzyl amine]
- IgA concentration relative to the group free of treatment ([1]; 10 mg/kg/day, 7th day): about 10 times
- IgA concentration relative to the group free of treatment ([1]; 30 mg/kg/day, 5th day): about 10 times
- IgA concentration relative to the basic concentration ([1]; dose not stated): about 10 times
- secretion of SP-A [2]: lightly promoted
- IgG concentration relative to the basic concentration of IgG ([3]; 10 mg/kg/day, 6th day): about 16 times
- IgG concentration relative to the basic concentration of IgG ([3]; 30 mg/kg/day, 5th day): ~15 times
- IgG concentration relative to the maximum concentration induced through the viral infection ([3]; treatment with ambroxol): ~1.45 times
- in vitro release of inflammatory cytokines such as TNF-α, IL-2, IL-1, IL-4, IL-13 and IFN-γ [4]: inhibits
- INF-γ ([5]; 10 mg/kg/day i.p., day 1): 9.4 ± 2.4 pg/mL
- INF-γ ([5]; 10 mg/kg/day i.p., day 2): 9.5 ± 1.8 pg/mL
- INF-γ ([5]; 10 mg/kg/day i.p., day 3): 2.8 ± 0.9 pg/mL
- IFN-γ ([5]; 10 mg/kg/day i.p., day 4): 5.3 ± 2.8 pg/mL
- IFN-γ ([5]; 10 mg/kg/day i.p., day 5): 14.7 ± 5.3 pg/mL
- IFN-γ ([5]; 10 mg/kg/day i.p., day 6): 39.4 ± 18.6 pg/mL
- IFN-γ ([5]; 10 mg/kg/day i.p., day 7): 4.0 ± 1.6 pg/mL
- INF-γ ([5]; 30 mg/kg/day i.p., day 1): 10.4 ± 2.7 pg/mL
- INF-γ ([5]; 30 mg/kg/day i.p., day 2): 9.8 ± 2.4 pg/mL
- INF-γ ([5]; 30 mg/kg/day i.p., day 3): 4.0 ± 1.1 pg/mL
- IFN-γ ([5]; 30 mg/kg/day i.p., day 4): 10.2 ± 5.5 pg/mL
- IFN-γ ([5]; 30 mg/kg/day i.p., day 5): 32.8 ± 11.1 pg/mL
- IFN-γ ([5]; 30 mg/kg/day i.p., day 6): 61.8 ± 21.7 pg/mL
- IFN-γ ([5]; 30 mg/kg/day i.p., day 7): 5.1 ± 1.8 pg/mL
- effect on INF-γ secretion in BALF ([5]; 1st day of treatment, not always observed): secretion-inhibitory effects
- secretion of MPI [6]: lightly promoted
- day on which the trypsin-type protease level reached the peak value ([7]; 10 mg/kg/day): 5 days
- day on which the trypsin-type protease level reached the peak level ([7]; 30 mg/kg/day): 4 days
- IgA level relative to the basic concentration of IgA ([8]; 10 mg/kg/day, 7th day): about 600 times
- IgA level relative to the basic concentration of IgA ([8]; 30 mg/kg/day, 5th day): ~700 times
- IgA concentration relative to the maximum concentration induced through the viral infection ([8]; treatment with ambroxol): 1.5-1.8 times
- IL-6 ([9]; 10 mg/kg/day i.p., day 1): 174.8 ± 35.0 pg/mL
- IL-6 ([9]; 10 mg/kg/day i.p., day 2): 191.8 ± 51.9 pg/mL
- IL-6 ([9]; 10 mg/kg/day i.p., day 3): 280.2 ± 54.2 pg/mL
- IL-6 ([9]; 10 mg/kg/day i.p., day 4): 339.2 ± 57.1 pg/mL
- IL-6 ([9]; 10 mg/kg/day i.p., day 5): 540.9 ± 84.2 pg/mL
- IL-6 ([9]; 10 mg/kg/day i.p., day 6): 503.23 ± 61.4 pg/mL
- IL-6 ([9]; 10 mg/kg/day i.p., day 7): 73.7 ± 14.7 pg/mL
- IL-6 ([9]; 30 mg/kg/day i.p., day 1): 170.8 ± 28.9 pg/mL
- IL-6 ([9]; 30 mg/kg/day i.p., day 2): 186.7 ± 19.6 pg/mL
- IL-6 ([9]; 30 mg/kg/day i.p., day 3): 326.2 ± 44.9 pg/mL
- IL-6 ([9]; 30 mg/kg/day i.p., day 4): 433.5 ± 101.9 pg/mL
- IL-6 ([9]; 30 mg/kg/day i.p., day 5): 478.2 ± 86.4 pg/mL
- IL-6 ([9]; 30 mg/kg/day i.p., day 6): 817.0 ± 168.0 pg/mL
- IL-6 ([9]; 30 mg/kg/day i.p., day 7): 80.0 ± 17.5 pg/mL
- effect on the level of IL-6 in BALF ([9]; 4th and 6th days of treatment): increased
- IL-12 ([10]; 10 mg/kg/day i.p., day 1): 27.3 ± 7.1 pg/mL
- IL-12 ([10]; 10 mg/kg/day i.p., day 2): 68.5 ± 12.9 pg/mL
- IL-12 ([10]; 10 mg/kg/day i.p., day 3): 133.3 ± 17.2 pg/mL
- IL-12 ([10]; 10 mg/kg/day i.p., day 4): 119.5 ± 15.8 pg/mL
- IL-12 ([10]; 10 mg/kg/day i.p., day 5): 57.4 ± 16.0 pg/mL
- IL-12 ([10]; 10 mg/kg/day i.p., day 6): 29.4 ± 6.2 pg/mL
- IL-12 ([10]; 10 mg/kg/day i.p., day 7): 62.5 ± 27.7 pg/mL
- IL-12 ([10]; 30 mg/kg/day i.p., day 1): 22.4 ± 4.1 pg/mL
- IL-12 ([10]; 30 mg/kg/day i.p., day 2): 108.2 ± 33.3 pg/mL
- IL-12 ([10]; 30 mg/kg/day i.p., day 3): 141.5 ± 15.1 pg/mL
- IL-12 ([10]; 30 mg/kg/day i.p., day 4): 118.6 ± 11.4 pg/mL
- IL-12 ([10]; 30 mg/kg/day i.p., day 5): 62.4 ± 13.6 pg/mL
- IL-12 ([10]; 30 mg/kg/day i.p., day 6): 44.3 ± 29.1 pg/mL
- IL-12 ([10]; 30 mg/kg/day i.p., day 7): 95.8 ± 52.2 pg/mL
- effect on TNF-α secretion in BALF [11]: secretion-inhibitory effects
- IgG concentration relative to the group free of treatment ([12]; 10 mg/kg/day, 7th day): about 1.2 time
- IgG concentration relative to the group free of treatment ([12]; 30 mg/kg/day, 6th day): about 1.2 time
- IgG concentration relative to the basic concentration ([12]; dose not stated): 1.2 times
- peak trypsin-type protease level relative to un-infected animals ([13]; 10 mg/kg/day i.p.): up to 2.2 times
- peak trypsin-type protease level relative to un-infected animals ([13]; 30 mg/kg/day i.p.): ≤ 2.4 times
- MPI concentration relative to that induced by the viral infection ([14]; […], treatment with ambroxol): 1.9 times
- peak MPI concentration relative to un-infected animals ([14]; mouse, in vivo): 8.4 times
- day on which the MPI level reached the peak value ([14]; mouse, in vivo, ip, 10 mg/kg/day): 5 days
- day on which the MPI level reached the maximum value ([14]; mouse, in vivo, ip, 30 mg/kg/day): 4 days
- day on which the SP-A level reached the peak value ([15]; 10 mg/kg/day): 5 days
- day on which the SP-A level reached the maximum value ([15]; 30 mg/kg/day): 4 days
